Measured values published in the supplement of paper PMC10307832.

Columns and labels:
Experiment in all cases: relative viability (nuclei count vs DMSO), 5 days (fraction); higher = more cells survive
[1] = compound: CC1=C(C(=O)N2C=CSC2=N1)CCN3CCC(=C(C4=CC=CC=C4)C5=CC=C(C=C5)F)CC3 + O=C(CCCCCCC(=O)Nc1ccccc1)NO [Vorinostat] (partner 1 µM)
Method in brief: (§1)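 The day after seeding in 1536-well plates, lung cancer cell lines were treated by pin tool with a single drug, or with a fixed anchor-drug dose together with five library-drug doses (not always all listed) in √10 steps. After 5 days, a combined fix-and-stain solution (final 0.05% Triton X-100, 1% formaldehyde, 1 ug/ml Hoechst) was added. Nuclei counted on 4× images gave relative viability as treated counts over vehicle counts, reported as the median of duplicate plates.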

[2] = compound: CC1=C(C(=O)N2C=CSC2=N1)CCN3CCC(=C(C4=CC=CC=C4)C5=CC=C(C=C5)F)CC3 + Nc1nc2[nH]cc(CCc3ccc(C(=O)N[C@@H](CCC(=O)O)C(=O)O)cc3)c2c(=O)[nH]1 [Pemetrexed] (partner 0.2 µM)
Method in brief: as §1

[3] = compound: CC1=C(C(=O)N2C=CSC2=N1)CCN3CCC(=C(C4=CC=CC=C4)C5=CC=C(C=C5)F)CC3 + Cc1nc(Nc2ncc(C(=O)Nc3c(C)cccc3Cl)s2)cc(N2CCN(CCO)CC2)n1 [Dasatinib] (partner 0.075 µM)
Method in brief: as §1

[4] = compound: CC1=C(C(=O)N2C=CSC2=N1)CCN3CCC(=C(C4=CC=CC=C4)C5=CC=C(C=C5)F)CC3 + CC(=O)c1c(C)c2cnc(Nc3ccc(N4CCNCC4)cn3)nc2n(C2CCCC2)c1=O [Palbociclib] (partner 0.5 µM)
Method in brief: as §1

Row | Cell Line | relative viability ([1]; first compound 0.08 µM) | relative viability ([1]; first compound 0.253 µM) | relative viability ([1]; first compound 0.8 µM) | relative viability ([1]; first compound 2.53 µM) | relative viability ([1]; first compound 8 µM) | relative viability ([2]; first compound 0.08 µM) | relative viability ([2]; first compound 0.253 µM) | relative viability ([2]; first compound 0.8 µM) | relative viability ([2]; first compound 2.53 µM) | relative viability ([2]; first compound 8 µM) | relative viability ([3]; first compound 0.08 µM) | relative viability ([3]; first compound 0.253 µM) | relative viability ([3]; first compound 0.8 µM) | relative viability ([3]; first compound 2.53 µM) | relative viability ([3]; first compound 8 µM) | relative viability ([4]; first compound 0.08 µM) | relative viability ([4]; first compound 0.253 µM) | relative viability ([4]; first compound 0.8 µM) | relative viability ([4]; first compound 2.53 µM) | relative viability ([4]; first compound 8 µM)
1 | NCI-H441 | 0.998 | 0.628 | 0.765 | 1.05 | 0.61 | 0.289 | 0.255 | 0.252 | 0.296 | 0.254 | 0.526 | 0.678 | 0.679 | 0.541 | 0.507 | 0.219 | 0.196 | 0.2 | 0.208 | 0.234
2 | NCI-H460 | 0.516 | 0.352 | 1.05 | 1.22 | 0.261 | 0.0657 | 0.059 | 0.0626 | 0.0637 | 0.0907 | 0.508 | 0.444 | 0.486 | 0.574 | 0.395 | 0.187 | 0.151 | 0.203 | 0.0978 | 0.13
3 | NCI-H520 | 0.729 | 0.751 | 0.743 | 0.962 | 0.489 | 0.726 | 0.566 | 0.691 | 0.778 | 0.477 | 0.208 | 0.195 | 0.221 | 0.209 | 0.182 | 0.211 | 0.235 | 0.238 | 0.223 | 0.19
4 | NCI-H522 | 0.69 | 0.86 | 1.03 | 1.08 | 0.736 | 0.958 | 0.997 | 0.964 | 0.914 | 0.764 | 0.901 | 0.549 | 0.998 | 0.855 | 0.733 | 1.08 | 1.09 | 0.809 | 0.977 | 0.933
5 | NCI-H647 | 0.681 | 0.574 | 0.603 | 0.514 | 0.333 | 0.185 | 0.149 | 0.185 | 0.166 | 0.184 | 0.12 | 0.15 | 0.167 | 0.18 | 0.0953 | 0.461 | 0.425 | 0.298 | 0.453 | 0.153
6 | NCI-H650 | 0.731 | 0.395 | 0.482 | 0.486 | 0.369 | 1.02 | 0.957 | 0.923 | 1.05 | 0.871 | 0.474 | 0.504 | 0.388 | 0.546 | 0.46 | 0.322 | 0.348 | 0.322 | 0.32 | 0.334
7 | NCI-H661 | 0.765 | 0.761 | 0.817 | 0.838 | 0.406 | 0.961 | 0.98 | 0.924 | 0.995 | 0.493 | 0.862 | 0.847 | 0.75 | 0.913 | 0.628 | 0.402 | 0.393 | 0.391 | 0.417 | 0.429
8 | NCI-H838 | 0.688 | 0.692 | 0.738 | 0.8 | 0.573 | 0.254 | 0.252 | 0.259 | 0.246 | 0.223 | 0.295 | 0.27 | 0.258 | 0.31 | 0.282 | 0.207 | 0.213 | 0.268 | 0.207 | 0.191
9 | NCI-H1355 | 0.588 | 0.602 | 0.6 | 0.611 | 0.529 | 1.09 | 1.04 | 1.02 | 1.1 | 0.97 | 0.698 | 0.605 | 0.769 | 0.771 | 0.632 | 0.368 | 0.404 | 0.378 | 0.407 | 0.455
10 | NCI-H1395 | 0.714 | 0.786 | 0.525 | 0.691 | 0.646 | 0.797 | 0.813 | 0.72 | 0.885 | 0.806 | 0.417 | 0.406 | 0.416 | 0.394 | 0.438 | 0.623 | 0.656 | 0.551 | 0.616 | 0.61
11 | NCI-H1437 | 0.702 | 0.867 | 0.901 | 0.9 | 0.386 | 0.338 | 0.371 | 0.323 | 0.35 | 0.235 | 0.471 | 0.346 | 0.434 | 0.426 | 0.339 | 0.297 | 0.317 | 0.325 | 0.323 | 0.257
12 | NCI-H1650 | 0.426 | 0.525 | 0.559 | 0.593 | 0.327 | 0.335 | 0.348 | 0.352 | 0.461 | 0.337 | 0.436 | 0.324 | 0.297 | 0.405 | 0.263 | 0.395 | 0.345 | 0.313 | 0.383 | 0.348
13 | NCI-H1651 | 0.552 | 0.547 | 0.557 | 0.616 | 0.452 | 0.756 | 0.611 | 0.545 | 0.644 | 0.574 | 0.406 | 0.535 | 0.423 | 0.434 | 0.341 | 0.499 | 0.534 | 0.508 | 0.517 | 0.481
14 | NCI-H1666 | 1 | 0.911 | 1.11 | 1.09 | 0.891 | 0.838 | 0.853 | 0.884 | 0.89 | 0.754 | 0.794 | 0.689 | 0.827 | 0.861 | 0.63 | 0.663 | 0.616 | 0.627 | 0.739 | 1.01
15 | NCI-H1734 | 0.881 | 0.652 | 0.734 | 0.86 | 0.747 | 0.487 | 0.452 | 0.391 | 0.424 | 0.399 | 0.484 | 0.438 | 0.458 | 0.468 | 0.35 | 0.367 | 0.342 | 0.324 | 0.318 | 0.378
16 | NCI-H1755 | 0.704 | 0.71 | 0.789 | 0.759 | 0.571 | 0.456 | 0.437 | 0.41 | 0.405 | 0.38 | 0.373 | 0.422 | 0.462 | 0.401 | 0.269 | 0.433 | 0.429 | 0.395 | 0.426 | 0.432
